Measured values from patent US9447136B2, “Semisynthetic derivatives of Nystatin A1” (BLIRT S.A., priority 2012, dated 2016).

How the values were obtained:
Human erythrocytes = assay: Hemotoxicity (hemolytic activity)
In short: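 Human erythrocytes in saline (2×10^7/ml) were incubated with serially diluted compound at 37 °C for 30 min, then centrifuged. Released hemoglobin was read as A540 against 0.1% Triton X-100 as full hemolysis. EH50 is the interpolated concentration giving 50% of the control A540.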

[1] = test system: Candida stellatoidea CBS 1905; assay: Antifungal activity in vitro, serial dilution in RPMI 1640; format: cell-based; conditions: Table 2B
In short: (§1)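 Serial dilution, RPMI 1640 pH 7.0 (M27-A2 reference method); A531 read-out. IC50 = interpolated conc. at 50% of control A531; MIC = lowest conc. with A531 ≤20% of control.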

[2] = test system: Candida parapsilosis DSM 5784; assay: as above; format: cell-based; conditions: Table 2B
In short: as §1

Candida krusei DSM 6128 = assay: as above; format: cell-based; conditions: Table 2A; RPMI 1640, pH 7.0
In short: as §1

[3] = test system: Aspergillus niger LOCK E201; assay: as above; format: cell-based; conditions: Table 2B
In short: as §1

[4] = test system: Candida quilliermondii DSM 11947; assay: as above; format: cell-based; conditions: Table 2B
In short: as §1

Candida arborea KKP 319 = assay: as above; format: cell-based; conditions: Table 2B
In short: as §1

[5] = test system: Candida lipolytica KKP 322; assay: as above; format: cell-based; conditions: Table 2B
In short: as §1

[6] = test system: Saccharomyces cerevisiae ATCC 9763; assay: as above; format: cell-based
In short: as §1

[7] = test system: Candida dubliniensis CBS 7987; assay: as above; format: cell-based; conditions: Table 2B
In short: as §1

[8] = test system: Candida albicans ATCC 10231; assay: as above; format: cell-based
In short: as §1

[9] = test system: Candida glabrata DSM 11226; assay: as above; format: cell-based; conditions: Table 2A; RPMI 1640, pH 7.0
In short: as §1

[10] = test system: Candida tropicalis KKP 334; assay: as above; format: cell-based; conditions: Table 2A; RPMI 1640, pH 7.0
In short: as §1

[11] = test system: Trichoderma viride LOCK E159; assay: as above; format: cell-based; conditions: Table 2B
In short: as §1

[12] = test system: Candida pseudotropicalis KKP 324; assay: as above; format: cell-based; conditions: Table 2B
In short: as §1

HepG2 = assay: Cytotoxic activity against mammalian cells in tissue culture (MTT); format: cell-based, human; conditions: HepG2, 120 h, MTT
Experimental: (§2) For examinations were used selected cell lines: CCRF-CEM—human acute lymphoblastic leukemia; HepG2—human malignant hepatoma; LLC-PK1—epithelial cell of pig kidney; All lines were from ATCC collection.
(§3) The study are conducted using described below methods of culturing and determination of cytotoxic activity.
(§4) CCRF-CEM cells were cultured in medium RPMI 1640+10% fetal bovine serum (FBS), LLC-PK1 cells in medium Medium 199+3% FBS, HepG2 cells in medium MEM+10% FBS. All media contained 100 μg/ml of penicillin G and streptomycin. 24-wells microplates containing appropriate medium were inoculated with the cells in amount of 1.2×10^4 cells/well and allowed to stand overnight. Next, tested compounds as solution in dimethylsulfoxide (DMSO) were added in volume of 10 μl (serial 2× dilutions). To control well 10 μl of DMSO was added. Microplates with cell suspensions were incubated for 120 h at temperature 37° C. at atmosphere of 95%/5% CO2. After incubation, to all wells 200 μl of solution of 3-(4,5-dimethylthiazole-2-yl)-2,5-diphenylotetrazole bromide (MTT) in PBS (4 mg/ml) was added and plates were further incubated for 4 h at 37° C. Next, to dissolve crystals of formazane 1 ml of DMSO was added and absorption of solutions was measured at the wavelength λ=540 nm (A540), using a microplates reader (Victor^3, Perkin-Wallac). […] From these graphs IC50 values were read, that is concentration of tested compound in the presence at which A540 value is half of A540 value measured in the control sample.

CCRF-CEM = assay: as above; format: cell-based, human; conditions: CCRF-CEM, 120 h, MTT
Experimental: as §2, §3, §4

Candida albicans STY31 = assay: Antifungal activity towards resistant (MDR) strains; format: cell-based; conditions: 5674 mutant derivative, deletion of CDR1 and CDR2
Experimental: (§5) The determination of antifungal activity was performed by the serial dilutions method in buffered RPMI 1640 medium, in a 96-wells microplates, according to the standard procedure (National Committee for Clinical Laboratory Standards. Reference method for broth dilution antifungal susceptibility testing of yeast, approved standard, 2nd ed. M27-A2 vol. 22 Wayne, Pa., 2002). The optical density of cells suspension was measured using a microplates reader (Victor^3, Perkin-Elmer) at the wavelength λ=660 nm (A660). On the basis of received results the diagrams on interrelation between the A660 value and the concentration of tested compound were made. From these graphs MIC values were read, that are the concentrations of tested compounds, in the presence at which A660 value is at most 20% of A660 value measured in control sample.

Candida albicans STY19 = assay: as above; format: cell-based; conditions: 5674 mutant derivative, deletion of CDR1
Experimental: as §5

Candida albicans F2 = assay: as above; format: cell-based; conditions: fluconazole sensitive, parent strain for F5
Experimental: as §5

Candida albicans B3 = assay: as above; format: cell-based; conditions: fluconazole sensitive, parent strain for B4
Experimental: as §5

Candida albicans F5 = assay: as above; format: cell-based; conditions: fluconazole-resistant due to the overexpression of CaMDR1 and ERG11
Experimental: as §5

Candida albicans STY7 = assay: as above; format: cell-based; conditions: 5674 mutant derivative, deletion of CDR2
Experimental: as §5

Candida albicans Gu4 = assay: as above; format: cell-based; conditions: fluconazole sensitive, parent strain for Gu5
Experimental: as §5

Candida albicans 5674 = assay: as above; format: cell-based; conditions: C. albicans 5674 overexpressing CDR1 and CDR2
Experimental: as §5

Candida albicans Gu5 = assay: as above; format: cell-based; conditions: fluconazole-resistant due to the overexpression of CDR1 and CDR2
Experimental: as §5

Candida albicans B4 = assay: as above; format: cell-based; conditions: fluconazole-resistant due to the overexpression of CaMDR1
Experimental: as §5

LLC-PK1 = assay: Cytotoxic activity against mammalian cells in tissue culture (MTT); format: cell-based, pig; conditions: LLC-PK1, 120 h, MTT
Experimental: as §2, §3, §4

[13] = Table 2A, RPMI 1640, pH 7.0, A531 at most 20% of control

CCN(CC)[C@@H](Cc1ccccc1)C(=O)NC1C(O)C(C)OC(O[C@H]2/C=C/C=C/C=C/C=C/CC/C=C/C=C/[C@H](C)[C@@H](O)[C@@H](C)[C@H](C)OC(=O)C[C@H](O)C[C@H](O)C[C@H](O)CC[C@@H](O)[C@H](O)CC3(O)C[C@H](O)[C@@H](C(=O)O)[C@H](C2)O3)C1O (stereo partly drawn) [Compound N46, N—[L-(N,N-diethyl)phenylalanyl]nystatin A1]
16 µg/mL: MIC Candida lipolytica KKP 322 [5] | MIC Candida dubliniensis CBS 7987 [7] | MIC Trichoderma viride LOCK E159 [11] | MIC Candida pseudotropicalis KKP 324 [12] | MIC Candida albicans F2 (Candida albicans F2) | MIC Candida albicans F5 (Candida albicans F5) | MIC Candida albicans Gu5 (Candida albicans Gu5)
>100 µg/mL: Cytotoxicity IC50 HepG2 (HepG2) | Cytotoxicity IC50 CCRF-CEM (CCRF-CEM) | Cytotoxicity IC50 LLC-PK1 (LLC-PK1)
32 µg/mL: MIC Candida parapsilosis DSM 5784 [2] | MIC Aspergillus niger LOCK E201 [3] | MIC Candida quilliermondii DSM 11947 [4] | MIC Candida arborea KKP 319 (Candida arborea KKP 319) | MIC Candida albicans STY31 (Candida albicans STY31) | MIC Candida albicans STY19 (Candida albicans STY19) | MIC Candida albicans STY7 (Candida albicans STY7) | MIC Candida albicans 5674 (Candida albicans 5674)
2.83 µg/mL: Antifungal activity Candida albicans ATCC 10231 IC50 ([8]; Table 2A, RPMI 1640, pH 7.0, A531 50% of control)
4 µg/mL: Antifungal activity Saccharomyces cerevisiae ATCC 9763 MIC [6, 13] | MIC Saccharomyces cerevisiae ATCC 9763 ([6]; Table 2B) | Antifungal activity Candida albicans ATCC 10231 MIC [8, 13] | MIC Candida albicans ATCC 10231 ([8]; Table 2B) | Antifungal activity Candida tropicalis KKP 334 MIC [10]
8 µg/mL: MIC Candida stellatoidea CBS 1905 [1] | Antifungal activity Candida krusei DSM 6128 MIC (Candida krusei DSM 6128) | Antifungal activity Candida glabrata DSM 11226 MIC [9] | MIC Candida albicans B3 (Candida albicans B3) | MIC Candida albicans Gu4 (Candida albicans Gu4) | MIC Candida albicans B4 (Candida albicans B4)
0.37%: % of hemolysis at the concentration 60 μg ml^−1 (Human erythrocytes)
